The values below come from patent publication US12145913B2, “Inhibition of Olig2 activity” (Curtana Pharmaceuticals, Inc., priority 2016, dated 2024).

Assay [1] relates to GBM8 human glioblastoma cells. Kind of assay: GBM8 viability assay (Cell Titer Glo). The conditions noted are these: 72 h, luminescence. It is filed as cell-based. The procedure, abridged:
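Patient-derived GBM4 and GBM8 neurosphere cells, 4000 per well in EGF/bFGF/heparin-supplemented NeuroCult medium, were exposed to compound (added in 1% DMSO solution) for 3 days at 37° C. Growth was read by CellTiter-Glo luminescence versus DMSO wells, and IC50s came from 4-parameter fits of serial dilutions.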
Background: Cellular ATP, detected with luciferase, serves as a proxy for viable cell number.

The test system of assay [2] is GBM4 human glioblastoma cells. Kind of assay: GBM4 viability assay (Cell Titer Glo). It is filed as cell-based. Here is the method:
Cell culture medium was prepared from a NSA proliferation kit (Neurocult) and NeuroCult supplements (Stemcell Tech Cat. #05751) and treated with 20 μL of 10 μg/mL rh EGF, 10 μL of 10 μg/mL rh bFGF and 10 μL of 0.2% Heparin. In this medium, human glioblastoma cells were cultured in ultra-low attachment tissue culture flasks until 1×10^6 cells ml was achieved (GBM4 and GBM8 are distinct neurosphere cell cultures derived from these human patient tissues). GBM4 and GBM8 cells were dissociated and 10 mL of media containing 4000 human glioblastoma cells per 90 μL were transferred to an ultra-low binding 96-well plate and incubated at 37° C. overnight. On the following day, 10 μL of a 1% DMSO solution of test compound in assay medium was added to wells containing the cell suspension and the mixture incubated at 37° C. for 3 days. At this time, the plate was removed from the incubator and allowed to reach room temperature. After about 30 minutes, 50 μL of Cell Titer Glo solution was added to each well and the plate shaken for 1 minute at low speed. After 10 minutes luminescence was recorded using a Tecan Safire2 reader.
Reduction in luminescence compared to DMSO only control wells was used to determine the percentage inhibition of cell growth. IC50s were calculated using the % inhibition of luminescence for serial dilutions of compounds fitted to a 4-parameter fit within the Prism (San Diego) curve fitting program. Tables 1 (compounds 3-188) and 2 (compounds 190-212) show the GBM4 IC50 and GBM8 IC50 for compounds described herein.

In assay [3] the test system is Human GBM8 glioblastoma flank tumor. As to the kind of experiment: Tumor growth inhibition in mouse flank tumor model, GBM8. The conditions noted are these: NSG mice, temozolomide orally plus radiation 1 Gy. It is filed as in vivo. The procedure: (§1) The animals were fed ad libitum water (reverse osmosis, 1 ppm Cl) and NIH 31 Modified and Irradiated Lab Diet® consisting of 18.0% crude protein. 5.0% crude fat, and 5.0% crude fiber. The mice were housed on irradiated Enrich-o'Cobs™ bedding in static microisolators on a 12-hour light cycle at 20-22° C. (68-72° F.) and 40-60% humidity.
(§2) Human GBM4 or GBM8 glioblastoma cell lines were maintained in Complete NeuroCult Proliferation Medium containing 20 ng/mL EGF, 10 ng/mL bFGF and 2 μg/mL Heparin. The cells were cultured in ultra low attachment T75 flask (Corning REF-3814) and the resulting neurospheres were dissociated every 4-6 days using the NeuroCult Chemical Dissociation kit (Stemcell Technologies Cat #05707). Cell cultures were maintained in tissue culture flasks in a humidified incubator at 37° C., in an atmosphere of 5% CO2 and 95% air. Cell samples were collected one passage prior to cell implant and preserved in freezing media.
(§3) Cells used for implantation were harvested during log phase growth and resuspended in cold PBS containing in 50% Matrigel™ (BD Biosciences). Tumor growth was initiated on Day 1 by subcutaneous injection of GBM4 cells into the right flank of each mouse with 1×10^7 tumor cells (0.1 mL cell suspension) and tumor growth was monitored in four groups (n=8) beginning on Day 12. Groups for treatment included group 1 (vehicle), group 2 (test Olig2 inhibitor), group 3 (treatment with temozolomide and radiation) and group 4 (test Olig2 inhibitor combined with temozolomide and radiation). The tumors were measured with a caliper in two dimensions to monitor size. Tumor size was calculated using the formula. Tumor Volume (mm^3)=w^2×½: where w=width and l=length, in mm, of a tumor. Tumor weight may be estimated with the assumption that 1 mg is equivalent to 1 mm^3 of tumor volume Tumors were measured with a caliper twice weekly for the duration of the study Temozolomide (Merck & Co., Lot No. L046487) was administered orally at doses of 5 mg/kg or 10 mg/Kg). Radiation was adminstered with a Faxitron model CP-160 X-ray system. Each animal was immobilized in a live restrainer. Therapy was administered for 1.3 min at 160 KV and 6.0 mA, providing a dose of 1 gray (Gy) for each animal.
The study endpoint was a tumor volume of 2000 mm^3 or Day 152, whichever came first. Each animal was euthanized for tumor progression (TP) when its tumor reached the volume endpoint. The time to endpoint (TTE) for each animal was calculated with the following equation: […]
The data set is comprised of the first observation that exceeded the study endpoint volume and the three consecutive observations that immediately preceded the attainment of the endpoint volume. […] In instances in which the log-transformed calculated TTE preceded the day prior to reaching endpoint or exceeded the day of reaching tumor volume endpoint, a linear interpolation was performed to approximate the TTE. Any animal determined to have died from treatment-related (TR) causes was assigned a TTE value equal to the day of death. […]
Treatment outcome was evaluated from tumor growth delay (TGD), which was defined as the increase in the median TTE for a treatment group compared to the control group: TGD=T−C, expressed in days, or as a percentage of the median TTE of the control group: TGD(%)=T−C/C×100 • T=median TTE for a treatment group, • C=median TTE for the control group.

The subject of assay [4] is Human GBM4 glioblastoma flank tumor. Kind of assay: Tumor growth inhibition in mouse flank tumor model, GBM4. It is filed as in vivo. The conditions noted are these: NSG mice, temozolomide orally plus radiation 1 Gy. The procedure:
as §1, §2
as §3, with “Tumor Volume (mm^3)=w^2×½: where w=width and l=length, in mm, of a tumor.” left out, “Radiation was adminstered with a Faxitron model CP-160 X-ray system. Each animal was immobilized in a live restrainer. Therapy was administered for 1.3 min at 160 KV and 6.0 mA, providing a dose of 1 gray (Gy) for each animal.” left out
The study endpoint was a tumor volume of 2000 mm^3 or Day 152, whichever came first. […] The time to endpoint (TTE) for each animal was calculated with the following equation: […]

Setting [5] is: 72 h, Table 1, 3 days incubation, luminescence, read-out: GBM4 IC50.
Where [6] appears, read: Table 3, GBM4 cells, read-out: GBM4 IC50 (Cytotoxicity).

Molecules are shown by their SMILES. Values joined by “and” are separate entries in the source; they are usually repeats but may differ in a detail not shown here. Equal entries are not always repeated. Where two headings read alike, the source gives them in different places.

Take `Cc1cc(NCCCN(C)C)nc(NC(=O)Nc2ccc3ccccc3c2)n1` [Compound 3, 1-(4-((3-(dimethylamino)propyl)amino)-6-methylpyrimidin-2-yl)-3-(naphthalen-2-yl)urea]: the half-maximal inhibitory concentration (IC50) was below 500 nM in assay [1] (Table 1, 3 days incubation) and below 500 nM in assay [2] (setting [5]).
On to `Cc1cc(NCCCN)nc(NC(=O)Nc2ccc3ccccc3c2)n1` [Compound 4, 1-(4-((3-aminopropyl)amino)-6-methylpyrimidin-2-yl)-3-(naphthalen-2-yl)urea], for which the IC50 in assay [1] (Table 1, 3 days incubation) was below 500 nM; in assay [2] (setting [5]), below 500 nM.
As to `CCNc1cc(C)nc(NC(=O)Nc2ccc3ccccc3c2)n1` [Compound 19], the IC50 in assay [1] (Table 1, 3 days incubation) is below 500 nM; in assay [2] (setting [6]), 60 nM.
In the same order, the values of `CC(=O)NCCNc1cc(C)nc(NC(=O)Nc2ccc3ccccc3c2)n1` [Compound 35, N-(2-((6-methyl-2-(3-(naphthalen-2-yl)ureido)pyrimidin-4-yl)amino)ethyl)acetamide] are below 500 nM and 140 nM.
In the same order, the values of `Cc1cc(NCCNS(C)(=O)=O)nc(NC(=O)Nc2ccc3ccccc3c2)n1` [Compound 36, N-(2-((6-methyl-2-(3-(naphthalen-2-yl)ureido)pyrimidin-4-yl)amino)ethyl)methanesulfonamide] are below 500 nM and 40 nM.
For the compound `CNCCCNc1cc(C(C)C)nc(NC(=O)Nc2ccc3ccccc3c2)n1` [Compound 192, 1-(4-isopropyl-6-((3-(methylamino)propyl)amino)pyrimidin-2-yl)-3-(naphthalen-2-yl)urea], the concentration for half-maximal inhibition (IC50) in assay [1] (Table 2, 3 days incubation) lay within 500 to 5000 nM.
On the same count and under the same terms, in the case of `CC(C)c1cc(NCCCN(C)C)nc(NC(=O)Nc2ccc(OC(F)(F)F)cc2)n1` [Compound 194, 1-(4-((3-(dimethylamino)propyl)amino)-6-isopropylpyrimidin-2-yl)-3-(4-(trifluoromethoxy)phenyl)urea] it was 500 to 5000 nM; in that of `CC(C)c1cc(N)nc(NC(=O)Nc2ccc(OC(F)(F)F)cc2)n1` [Compound 196, 1-(4-amino-6-isopropylpyrimidin-2-yl)-3-(4-(trifluoro-methoxy)phenyl)urea], 500 to 5000 nM; in that of `CNCCCNc1cc(C(C)C)nc(NC(=O)Nc2ccc(OC(F)(F)F)cc2)n1` [Compound 198, 1-(4-isopropyl-6-((3-(methylamino)propyl)amino)pyrimidin-2-yl)-3-(4-(trifluoromethoxy)phenyl)urea], 500 to 5000 nM.
On the same count and under the same terms, in the case of `CC(C)c1cc(NO)nc(NC(=O)Nc2ccc(OC(F)(F)F)cc2)n1` [Compound 199, 1-(4-(hydroxyamino)-6-isopropylpyrimidin-2-yl)-3-(4-(trifluoromethoxy)phenyl)urea] it was 500 to 5000 nM; in that of `CN(C)CCCNc1cc(C2CC2)nc(NC(=O)Nc2ccc(Cl)c(Cl)c2)n1` [Compound 204, 1-(4-cyclopropyl-6-((3-(dimethylamino)propyl)amino)-pyrimidin-2-yl)-3-(3,4-dichlorophenyl)urea], 500 to 5000 nM.
On to `CNCCCNc1cc(C2CC2)nc(NC(=O)Nc2ccc(Cl)c(Cl)c2)n1` [Compound 206, 1-(4-cyclopropyl-6-((3-(methylamino)propyl)amino)pyrimidin-2-yl)-3-(3,4-dichlorophenyl)urea], for which the concentration for half-maximal inhibition (IC50) in assay [1] (Table 2, 3 days incubation) was in the range of 5000 to 30000 nM.
Same read-out and setting: in the case of `O=C(Nc1ccc(Cl)c(Cl)c1)Nc1nc(NO)cc(C2CC2)n1` [Compound 207, 1-(4-cyclopropyl-6-(hydroxyamino)pyrimidin-2-yl)-3-(3,4-dichlorophenyl)urea] it was 500 to 5000 nM; in that of `CN(C)CCCNc1cc(C2CC2)nc(NC(=O)Nc2ccc(OC(F)(F)F)cc2)n1` [Compound 209, 1-(4-cyclopropyl-6-((3-(dimethylamino)propyl)amino)-pyrimidin-2-yl)-3-(4-(trifluoromethoxy)phenyl)urea], 500 to 5000 nM; in that of `CNCCCNc1cc(C2CC2)nc(NC(=O)Nc2ccc(OC(F)(F)F)cc2)n1` [Compound 211, 1-(4-cyclopropyl-6-((3-(methylamino)propyl)amino)pyrimidin-2-yl)-3-(4-(trifluoromethoxy)phenyl)urea], 500 to 5000 nM.
The same measure, in the same setting: in the case of `O=C(Nc1ccc(OC(F)(F)F)cc1)Nc1nc(NO)cc(C2CC2)n1` [Compound 212, 1-(4-cyclopropyl-6-(hydroxyamino)pyrimidin-2-yl)-3-(4-(trifluoromethoxy)phenyl)urea] it was 500 to 5000 nM.
On to `Cn1nnc2c(C(N)=O)ncn2c1=O` [Temozolomide, reference compound], for which the “Temozolomide + radiation (median TTE)” value in assay [3] was 86.2 days and 78 days; in assay [4], 116.3 days.

A word on the IC50: it is the point on the concentration scale where inhibition reaches its midpoint.
